These results are taken from patent US5250538A, “Indole derivatives and their use” (Novo Nordisk A/S, priority 1990, dated 1993).

One assay deals with T1, 5-HT1A (Rattus norvegicus, UniProt P19327).
T1 construct: from tissue
T1 sequence (P19327 1-422): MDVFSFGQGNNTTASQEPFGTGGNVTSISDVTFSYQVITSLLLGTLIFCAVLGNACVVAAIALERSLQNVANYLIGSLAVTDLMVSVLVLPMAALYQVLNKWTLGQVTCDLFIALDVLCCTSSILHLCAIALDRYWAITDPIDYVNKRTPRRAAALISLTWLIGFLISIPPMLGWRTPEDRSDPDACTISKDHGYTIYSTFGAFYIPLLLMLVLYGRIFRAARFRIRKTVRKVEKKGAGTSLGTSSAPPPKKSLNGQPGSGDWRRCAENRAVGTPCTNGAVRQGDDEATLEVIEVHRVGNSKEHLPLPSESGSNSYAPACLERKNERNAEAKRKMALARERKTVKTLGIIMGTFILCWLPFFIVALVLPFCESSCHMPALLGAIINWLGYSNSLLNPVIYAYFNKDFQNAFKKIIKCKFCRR
Briefly: 5-HT1A receptor binding in vitro (3H-8-OH-DPAT, rat frontal cortex/hippocampus). To be noted: rat brain, ligand 3H-8-OH-DPAT 2 nM, 10 min 37° C. The protocol:
(§1) Compounds of the general formula (I) were tested for binding to 5-HT receptors and compared with known ligands by the following procedure:
(§2) Rat brain tissue (as specified in the table hereinafter) was homogenized using a Polytron homogenizer. The final pellet was resuspended in 125 vol (tissue wet weight) of buffer.
(§3) In all assays incubation was carried out for 10 min at 37° C.
(§4) Detailed conditions for the receptor binding assay in vitro are tabulated below.

The target of the next assay is T2, 5-HT1B (Rattus norvegicus, UniProt P28564).
T2 construct: from tissue
Briefly: 5-HT1B receptor binding in vitro (3H-5-HT, 50 nM 8-OH-DPAT included). On the procedure:
as §1, §2, §3
Labelling of the 5-HT1B receptor was complicated by the fact that the available ligand ^3 H-5-HT is nonselective.
as §4

For another assay, the system named is 5-HT1 recognition sites. As to conditions: background, Ann.Reports Med.Chem. 21 (1986), 42-43; cited from earlier work.
The next assay deals with 5-HT2 receptor subtype. As to conditions: background, in words; cited from earlier work.
The subject of a further assay is 5-HT1A receptors. To be noted: background, in words; cited from earlier work.

Counter-ions that a name gives are not always drawn. Bounds are passed on as bounds.

T2 sequence (P28564 whole entry): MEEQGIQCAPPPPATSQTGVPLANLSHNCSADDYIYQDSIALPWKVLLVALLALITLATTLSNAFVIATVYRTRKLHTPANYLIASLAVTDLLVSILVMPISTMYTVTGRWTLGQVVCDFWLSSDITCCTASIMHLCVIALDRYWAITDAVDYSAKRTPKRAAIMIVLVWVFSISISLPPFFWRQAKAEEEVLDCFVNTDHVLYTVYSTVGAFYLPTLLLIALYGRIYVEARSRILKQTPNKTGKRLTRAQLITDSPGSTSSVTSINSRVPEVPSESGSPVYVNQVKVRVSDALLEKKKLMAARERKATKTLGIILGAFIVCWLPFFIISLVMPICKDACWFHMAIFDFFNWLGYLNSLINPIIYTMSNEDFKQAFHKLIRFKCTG

For orientation: IC50 means the concentration that inhibits the measured activity by half. The low end stands for higher potency, the high end for lower potency. In the case of `COc1ccc2[nH]cc(CCNCCCCN3C(=O)C4C5C=CC(C6C=CC65)C4C3=O)c2c1` (stereo not drawn) [Example 5, 1-(4-(1,3-Dioxo-4,7-etheno-1,3,3a,4,4a,6a,7,7a-octa-hydro-2 H-cyclobut(f]isoindol-2-yl)butyl-1-amino)-2(5-methoxy-3-indolyl)-ethand, oxalate], the IC50 was 2.5 nM on 5-HT1A and greater than 1000 nM on 5-HT1B.
On to `O=C1c2ccccc2S(=O)(=O)N1CCCCN1CCN(c2ncccn2)CC1` [Ipsapirone, reference compound], for which, at 5-HT1B, the IC50 was greater than 1000 nM.
As to `COc1ccc2[nH]cc(CCNCCCCN3C(=O)CC4(CCCC4)CC3=O)c2c1` [Example 4, 1-(4-(7,9-Dioxo-8-azaspiro[4,5]decan-8-yl)butyl-1-amino)-2-(5-methoxy-3-indolyl)-ethane, oxalate], the IC50 on 5-HT1A was 4 nM; at 5-HT1B, greater than 1000 nM.
`COc1ccc2[nH]cc(C3=CCNCC3)c2c1` [RU 24969]: the “affinity for 5-HT1 recognition sites” value in the assay on 5-HT1 recognition sites is “high affinity”.
In the case of `O=C(c1ccc(F)cc1)C1CCN(CCn2c(=O)[nH]c3ccccc3c2=O)CC1` [ketanserin], the “high affinity for the 5-HT2 receptor subtype” value with 5-HT2 receptor subtype is listed as “high affinity”.
On to `O=C1C2C3C=CC(C4C=CC43)C2C(=O)N1CCCCNCCc1c[nH]c2ccccc12` (stereo not drawn) [Example 1, 1-(4-(1,3-Dioxo-4,7-etheno-1,3,3a,4,4a,6a,7,7a-octahydro-2 H-cyclobut[f]isoindol-2-yl)butyl-1-amino)-2-(3-indolyl)-ethane, oxalate], for which the half-maximal inhibitory concentration (IC50) on 5-HT1A is 26 nM; on 5-HT1B it was 480 nM.
For `CCCN(CCC)C1CCc2cccc(O)c2C1` (stereo not drawn) [Example 8-OH-DPAT, 8-hydroxy-2-(di-n-propylamino)tetralin], the “binds with high affinity to 5-HT1A receptors” value in the assay on 5-HT1A receptors is reported as “high affinity”.
With `O=C1c2ccccc2C(=O)N1CCCCNCCc1c[nH]c2ccccc12` [Example 2, 1-(4-Phthalimidobutyl-1-amino)-2-(3-indolyl)-ethane, oxalate], the IC50 at 5-HT1A turned out to be 375 nM; on 5-HT1B, 148 nM.
